The values that follow come from patent US7462480B2, “Stimulation of microbial dechlorination of polychorinated biphenyls with halogenated ethenes” (University of Maryland Biotechnology Institute, priority 2002, dated 2008).

For data set [1] the following is noted: partially soluble in water; cited from earlier work.
Data set [2] has as its system DF-1. Put plainly: anaerobic enrichment culture of PCB dechlorinating bacterium DF-1 with tetrachloroethene. Format: cell-based, bacterium double flank-dechlorinating strain DF-1. The procedure:
(§1) Culture Conditions. A sterile media was prepared composed of at least one of the following components in grams per liter (final concentration) of demineralized water: Na2CO3, 3.0; Na2HPO4, 0.6; NH4Cl, 0.5; cysteine-HCl.H2O, 0.25; Na2S.9H2O, 0.25; resazurin, 0.001. In addition, 1% (v/v) each of vitamin and trace element solutions was added. An anaerobic enrichment culture comprising either O-17 (GenBank Accession #: AF058005; Appl Environ Microbiol. 1998 September; 64(9):3359-67)or DF-1 (GenBank Accession #: AF393781; Appl Environ Microbiol. 2002 February; 68(2):807-12)capable of dechlorination of 2,3,5,6-tetrachlorobiphenyl (2,3,5,6-CB) in the absence of sediment was used in this study. Cultures were incubated at 30° C. in the dark. All gases were passed through a column of reduced copper turnings at 350° C. to remove traces of O2. Media (8 ml) were dispersed into culture tubes (16×160 mm) and sealed with Teflon®-lined butyl stoppers (The West Company, Lionville, Pa.) secured by aluminum crimp collars (Bellco Glass, Inc., Vineland, N.J.).
(§2) Congener 2,3,5,6-tetrachlorobiphenyl (2,3,5,6-CB) was also solubilized in tetrachloroethene and added to a fresh anaerobic enrichment culture comprising either O-17 or DF-1 and was incubated under strict anaerobic conditions at 30° C. in the dark. […]

Data set [3] concerns O-17. Nature of the data set: anaerobic enrichment culture of PCB dechlorinating bacterium O-17 with tetrachloroethene. Format: cell-based, bacterium ortho-dechlorinating strain O-17. The procedure:
as §1, §2

Setting [4] is: 2,3,5,6-CB solubilized in tetrachloroethene, strict anaerobic conditions, 30° C. in the dark.
The mark [5] stands for this setting: PCBs and tetrachloroethene combined, simultaneously dechlorinated.

Regarding `ClC(Cl)=C(Cl)Cl` [tetrachloroethene], in data set [1], the solubility in water result is given as “up to 1 mM”. Moreover, the “population growth density relative to culture containing 2,3,5,6-CB alone” value in data set [2] (setting [4]) and in data set [3] (setting [4]) was “increased population growth density” in each case. The “effect on PCB dechlorination” value in data set [2] (setting [5]) and in data set [3] (setting [5]) was “did not inhibit or significantly delay PCB dechlorination” each time.
